Results: US11951088B2, “Fatty acid analogs and their use in the treatment of conditions related to metabolic syndrome” (Epitracker, Inc., priority 2017, dated 2024)
Where two headings read alike, the source gives them in different places.

Tests used:
[1] = system: C57BL/6J mice fed a high fat diet; experiment: diet-induced obese mice treated daily by gastric gavage for 12 weeks; assay type: in vivo
Protocol: Forty C57BL/6J mice were fed a high fat diet (HFD) (D12492, 60% kcals fat) for 8 weeks. Study mice were then divided into the following four groups of ten: vehicle controls, low dose C17:0-treated (5 mg/kg body weight), high-dose C17:0-treated (50 mg/kg body weight), and low-dose C15:0-treated (5 mg/kg body weight).
Table 1 provides comparisons of cardiometabolic effects in diet-induced obese mice treated daily with oral pentadecanoic acid (5 mg/kg BW), heptadecanoic acid (5 and 50 mg/kg BW) for 12 weeks compared to vehicle controls. “Results” values are based on 6 h fasted samples.

[2] = system: New Zealand white rabbits fed a high fat diet; experiment: diet-induced rabbit model for metabolic syndrome-associated dyslipidemia, anemia, liver iron overload and steatohepatitis; assay type: in vivo; details: Day 76
Text: This study further assessed the efficacy of treating diseases associated with metabolic syndrome, including dyslipidemia, inflammation, anemia, liver iron overload and nonalcoholic steatohepatitis, using an oral odd-chain saturated fatty acid. Sixteen New Zealand white rabbits were fed a high fat diet (HFD) (4% peanut oil and 0.5% cholesterol) for 2 weeks. Eight additional rabbits were maintained on a baseline diet. Study rabbits were then divided into the following three groups of eight: baseline diet controls, HFD controls, and C15:0-treated (35 mg/kg body weight) cases. The test article was a synthetic powder stable at room temperature and purchased from Sigma-Aldrich (Products W433400 (≥99% C15:0). The test article was provided daily in the diet for 11 weeks (76 days) while continuing ad libitum access to the HFD (HFD controls and treated groups) or baseline diet (baseline diet controls). Body weight and food intake were measured weekly. Plasma clinical chemistries and red blood cell indices, as well as iron deposition and fibrosis in the liver, were assessed at Day 76. Data from the treated group were compared to the control groups using Wilcoxon rank sum analyses. […].
Table 2 provides comparisons of clinical effects from a diet-induced rabbit model for metabolic syndrome-associated dyslipidemia, inflammation, and hemolytic anemia, including a case group treated daily with oral pentadecanoic acid (C15:0) (35 mg/kg BW) for 11 weeks.
Table 3 provides comparisons of effects on liver histology in a diet-induced rabbit model for metabolic syndrome-associated liver iron overload and nonalcoholic steatohepatitis, including a case group treated daily with oral pentadecanoic acid (C15:0) (35 mg/kg BW) for 11 weeks.

[3] = 24-hour plasma pharmacokinetics after single oral dose in rats; assay type: in vivo; details: for bioavailability: po, 35 mg/kg
[4] = target: T1, human PPAR-α (Homo sapiens, UniProt Q07869); experiment: PathHunter NHR Protein Interaction assay, PPAR-α agonist activity (CHO cells); details: PPAR-alpha; Table 4
T1 sequence (Q07869 1-468): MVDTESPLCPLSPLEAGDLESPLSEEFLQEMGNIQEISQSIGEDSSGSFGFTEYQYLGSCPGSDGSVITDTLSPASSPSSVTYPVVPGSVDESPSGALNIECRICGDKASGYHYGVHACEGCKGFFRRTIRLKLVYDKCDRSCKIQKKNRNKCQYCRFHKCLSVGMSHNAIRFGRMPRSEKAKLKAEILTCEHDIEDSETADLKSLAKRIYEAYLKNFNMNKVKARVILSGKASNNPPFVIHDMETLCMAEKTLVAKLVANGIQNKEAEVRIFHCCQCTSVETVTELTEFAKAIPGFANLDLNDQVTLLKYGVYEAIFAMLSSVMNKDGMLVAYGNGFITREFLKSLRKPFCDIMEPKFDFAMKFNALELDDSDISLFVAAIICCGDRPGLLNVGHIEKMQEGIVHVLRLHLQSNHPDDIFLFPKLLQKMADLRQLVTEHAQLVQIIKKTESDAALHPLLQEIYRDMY
Protocol: (§1) PPAR-α, PPAR-δ, and PPAR-γ agonist activities were measured using PathHunter Nuclear Hormone Receptor (NHR) Protein Interaction (Pro) assays (DiscoverX, Freemont, California). Briefly, Chinese hamster ovary (CHO) cell lines were used to monitor the activation of PPAR-α, PPAR-δ, and PPAR-γ in a homogenous, non-imaging assay format using Enzyme Fragment Complementation (EFC). The NHR Pro assay was based on detection of protein-protein interactions between activated, full length PPAR-α, PPAR-δ, and PPAR-γ proteins and a nuclear fusion protein containing Steroid Receptor Co-activator Peptide (SRCP) domains with one or more canonical LXXLL interaction motifs. PPAR-α, PPAR-δ, and PPAR-γ were tagged with the ProLink component of the EFC assay system, and the SRCP domain was fused to the enzyme acceptor component (EA) expressed in the nucleus. When bound by ligand, PPAR-α, PPAR-δ, or PPAR-γ migrated to the nucleus and recruited the SRCP domain, whereby complementation occurred, generating a unit of active β-Galactosidase (β-Gal) and production of chemiluminescent signal. […] Percentage activity was calculated using the following formula: % Activity=100%×(mean RLU of test sample−mean RLU of vehicle control)/(mean MAX control ligand−mean RLU of vehicle control).

[5] = target: T2, human PPAR-δ (Homo sapiens, UniProt Q03181); experiment: PathHunter NHR Protein Interaction assay, PPAR-δ agonist activity (CHO cells)
T2 sequence (Q03181 1-441): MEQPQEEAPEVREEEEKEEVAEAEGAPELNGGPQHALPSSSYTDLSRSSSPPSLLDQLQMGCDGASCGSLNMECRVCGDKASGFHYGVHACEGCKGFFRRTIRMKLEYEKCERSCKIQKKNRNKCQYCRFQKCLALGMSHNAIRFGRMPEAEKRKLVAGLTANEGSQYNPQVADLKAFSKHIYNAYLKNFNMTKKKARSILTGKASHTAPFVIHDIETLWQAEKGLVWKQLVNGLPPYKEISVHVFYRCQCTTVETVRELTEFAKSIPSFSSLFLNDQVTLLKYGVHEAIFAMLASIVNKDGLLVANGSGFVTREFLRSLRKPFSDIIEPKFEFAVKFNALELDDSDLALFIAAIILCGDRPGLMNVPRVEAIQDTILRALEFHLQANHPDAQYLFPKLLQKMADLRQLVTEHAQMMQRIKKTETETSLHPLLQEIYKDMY
Protocol: as §1

[6] = target: T3, human PPAR-γ (Homo sapiens, UniProt P37231); experiment: PathHunter NHR Protein Interaction assay, PPAR-γ agonist activity (CHO cells)
T3 sequence (P37231 1-505): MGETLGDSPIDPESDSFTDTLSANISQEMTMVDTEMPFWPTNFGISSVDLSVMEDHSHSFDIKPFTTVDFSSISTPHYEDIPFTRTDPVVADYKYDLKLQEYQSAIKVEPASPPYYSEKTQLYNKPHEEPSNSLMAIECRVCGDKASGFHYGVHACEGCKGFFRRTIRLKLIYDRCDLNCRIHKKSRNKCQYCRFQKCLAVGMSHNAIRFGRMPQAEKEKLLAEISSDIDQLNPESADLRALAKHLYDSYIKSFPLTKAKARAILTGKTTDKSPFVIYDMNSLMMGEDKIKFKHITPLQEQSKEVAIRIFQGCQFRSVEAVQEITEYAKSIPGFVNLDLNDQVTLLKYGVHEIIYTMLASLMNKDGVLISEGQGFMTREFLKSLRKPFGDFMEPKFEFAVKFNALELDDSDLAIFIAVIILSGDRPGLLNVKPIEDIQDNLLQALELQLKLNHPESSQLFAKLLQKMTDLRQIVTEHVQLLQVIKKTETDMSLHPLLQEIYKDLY
Protocol: as §1

[7] = Day 84, 6 h fasted, 5 mg/kg daily oral

CCCCCCCCCCCCCCC(=O)O [C15:0, pentadecanoic acid]
metabolic syndrome compared to vehicle controls (in words) ([1]; 12 weeks daily oral, C15:0 5 mg/kg, C17:0 5 and 50 mg/kg): attenuated metabolic syndrome | Cholesterol [1, 7]: 183 ± 25 mg/dL | Glucose [1, 7]: 245 ± 37 mg/dL | IL-6 [1, 7]: 19 ± 11 pg/mL | Insulin [1, 7]: 4.9 ± 3.8 ng/mL | LDL-C [1, 7]: 6 ± 4 mg/dL | MCP-1 [1, 7]: 52 ± 25 pg/mL | TNF-α [1, 7]: 1.6 ± 1.0 pg/mL | clinical effects compared to the HFD controls (in words) ([2]; 35 mg/kg): attenuated anemia, liver iron deposition, and liver fibrosis | Hematocrit ([2]; 35 mg/kg/day in HFD): 38 ± 4% | Hemoglobin ([2]; 35 mg/kg/day in HFD): 14 ± 1 G/dl | Mean cell hemoglobin ([2]; 35 mg/kg/day in HFD): 23 ± 1 pg | Mean cell volume ([2]; 35 mg/kg/day in HFD): 64 ± 2 fL | Nucleated red blood cells ([2]; 35 mg/kg/day in HFD): 8 ± 1 10^3/ul | Platelets ([2]; 35 mg/kg/day in HFD): 485 ± 87 10^3/ul | Red blood cell distribution width ([2]; 35 mg/kg/day in HFD): 15 ± 1% | Red blood cells ([2]; 35 mg/kg/day in HFD): 6.0 ± 0.7 10^6/ul | Cholesterol ([2]; plasma, 35 mg/kg/day in HFD): 2516 ± 746 mg/dL | Globulins ([2]; plasma, 35 mg/kg/day in HFD): 1.3 ± 0.7 G/dl | Lipemia ([2]; plasma, 35 mg/kg/day in HFD): 341 ± 243 mg/dL | Triglycerides ([2]; plasma, 35 mg/kg/day in HFD): 235 ± 132 mg/dL | Cmin ([3]; 35 mg/kg single oral dose): 700 ng/mL | Tlast ([3]; 35 mg/kg single oral dose): 24 h | AUC(0-t) ([3]; rat, 35 mg/kg single oral dose): 46400 ng·h/mL | Tmax ([3]; rat, 35 mg/kg single oral dose): 1 h | Cmax ([3]; rat, 35 mg/kg single oral dose, deuterated form): 4980 ng/mL | bioavailability ([3]; rat, 35 mg/kg single oral dose, estimate using an AUC of 15 for a 1 mg/kg IV arm, read-out: % F): 8.83% | bioavailability ([3]; rat, oral, rats, read-out: estimated plasma % F (bioavailability)): 9% | EC50 [4]: 11.5 µM | PPAR-delta agonist activity (in words) [5]: partial PPAR delta agonist | EC50 [6]: > 100 µM | EC50 ([6]; read-out: Half Maximal Effective Concentration (EC50), PPAR-γ, Table 5): > 100 µM
